Measured values from PubChem BioAssay (NCI).
Where “and” joins values, the source holds several entries; their conditions need not be identical. Identical values can stand only once.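 Where inhibition never reached the appropriate level, the endpoint shown equals the highest concentration tested. Otherwise, values were interpolated linearly from a five-concentration, 48-hour dose response in 96-well plates. Here, GI50 denotes the concentration required for 50% inhibition of growth. Definition used: TGI = concentration required for complete inhibition of growth.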

How the values were obtained:
Assay in all cases: inhibition of tumour cell growth, NCI panel, 48 h
RPMI-8226 leukemia = test system: RPMI-8226 leukemia
786-0 renal = test system: 786-0 renal
HCT-116 colon = test system: HCT-116 colon
SR leukemia = test system: SR leukemia
SN12C renal = test system: SN12C renal
U251 CNS = test system: U251 CNS
MDA-MB-435 = test system: MDA-MB-435
PC-3 prostate = test system: PC-3 prostate

## CCOc1ccc(-c2nonc2NC(=O)c2cccc(C)c2)cc1OCC
RPMI-8226 leukemia
  GI50: > 100000 nM
  TGI: > 100000 nM
786-0 renal
  GI50: 49700 nM
  TGI: > 100000 nM
HCT-116 colon
  GI50: 35700 nM
  TGI: > 100000 nM
SR leukemia
  GI50: > 100000 nM
  TGI: > 100000 nM
SN12C renal
  GI50: > 100000 nM
  TGI: > 100000 nM
U251 CNS
  GI50: 30500 nM
  TGI: > 100000 nM
MDA-MB-435
  GI50: > 100000 nM
  TGI: > 100000 nM
PC-3 prostate
  GI50: > 100000 nM
  TGI: > 100000 nM

## O=C1C(Cl)=C(Nc2cccc(Cl)c2)C(=O)N1Cc1ccccc1Cl
RPMI-8226 leukemia
  GI50: 1820 nM
  TGI: 26000 nM
786-0 renal
  GI50: 1210 nM
  TGI: 16300 nM
HCT-116 colon
  GI50: 1030 nM
  TGI: 4410 nM
SR leukemia
  GI50: 260 nM
  TGI: 645 nM
SN12C renal
  GI50: 2320 nM
  TGI: 8000 nM
U251 CNS
  GI50: 2950 nM
  TGI: 11300 nM
MDA-MB-435
  GI50: 1010 nM
  TGI: 4090 nM
PC-3 prostate
  GI50: 4800 nM
  TGI: 21300 nM

## Fc1ccc2c(c1)c(-c1nc(-c3c[nH]c4ncccc34)cs1)cn2CCCN1CCCCC1
786-0 renal
  GI50: 1650 nM
  TGI: 3100 nM
HCT-116 colon
  GI50: 1750 nM
  TGI: 3300 nM
SN12C renal
  GI50: 1740 nM
  TGI: 3310 nM
U251 CNS
  GI50: 1820 nM
  TGI: 3330 nM
MDA-MB-435
  GI50: 1660 nM
  TGI: 3170 nM
PC-3 prostate
  GI50: 1690 nM
  TGI: 3200 nM

## C=C1C(=O)O[C@H]2[C@H]1CC/C(Cn1cc(-c3cc(C(F)(F)F)cc(C(F)(F)F)c3)nn1)=C\CC[C@@]1(C)O[C@@H]21
RPMI-8226 leukemia
  GI50: 221 nM
  TGI: 522 nM
786-0 renal
  GI50: 163 nM
  TGI: 311 nM
HCT-116 colon
  GI50: 153 nM
  TGI: 312 nM
SR leukemia
  GI50: 103 nM
  TGI: 444 nM
SN12C renal
  GI50: 702 nM
  TGI: 2380 nM
U251 CNS
  GI50: 1440 nM
  TGI: 2760 nM
MDA-MB-435
  GI50: 743 nM
  TGI: 2080 nM
PC-3 prostate
  GI50: 832 nM
  TGI: 2330 nM

## CC(=O)[C@@]1(O)CC[C@H]2[C@@H]3C[C@H](C)C4=CC(=O)CC[C@]4(C)[C@H]3[C@@H](O)C[C@@]21C
RPMI-8226 leukemia
  TGI: > 100000 nM
786-0 renal
  TGI: > 100000 nM
HCT-116 colon
  TGI: > 100000 nM
SR leukemia
  TGI: > 100000 nM
SN12C renal
  TGI: > 100000 nM
U251 CNS
  TGI: > 100000 nM
MDA-MB-435
  TGI: > 100000 nM
PC-3 prostate
  TGI: > 100000 nM

## COc1ncc(-c2ccc3nccc(-c4ccnnc4)c3c2)cc1NS(=O)(=O)c1ccc(F)cc1F
RPMI-8226 leukemia
  GI50: 32.1 nM and 29.7 nM
  TGI: 656 nM and 963 nM
786-0 renal
  GI50: 6.51 nM and < 10 nM
  TGI: 79.1 nM and 106 nM
HCT-116 colon
  GI50: 15.5 nM
  TGI: 2310 nM and 1550 nM
SR leukemia
  GI50: 16.9 nM and 20.3 nM
  TGI: 499 nM and 345 nM
SN12C renal
  GI50: 11.1 nM and < 10 nM
  TGI: > 100000 nM
U251 CNS
  GI50: 19.4 nM and < 14.7 nM
  TGI: > 3430 nM and 923 nM
MDA-MB-435
  GI50: 10.5 nM and < 11.7 nM
  TGI: 1130 nM and 863 nM
PC-3 prostate
  GI50: 4.32 nM and < 10 nM
  TGI: 2370 nM and 4460 nM

## COC(=O)c1c2c(c(C)[n+]([O-])c1C)C(=O)C=C(NCc1ccc(F)c(Cl)c1)C2=O
RPMI-8226 leukemia
  GI50: 839 nM
  TGI: 3930 nM
786-0 renal
  GI50: 1130 nM
  TGI: 3600 nM
HCT-116 colon
  GI50: 130 nM
  TGI: 1030 nM
SR leukemia
  GI50: 381 nM
  TGI: 6730 nM
SN12C renal
  GI50: 310 nM
  TGI: 1280 nM
U251 CNS
  GI50: 291 nM
  TGI: 1440 nM
MDA-MB-435
  GI50: 51.5 nM
  TGI: 173 nM
PC-3 prostate
  GI50: 245 nM
  TGI: 4020 nM

## COc1cc2c3c(n(CCCN)c(=O)c2cc1OC)-c1cc2c(cc1/C3=C\CCN)OCO2
RPMI-8226 leukemia
  GI50: 2010 nM
  TGI: > 40300 nM
786-0 renal
  GI50: 2050 nM
  TGI: 9340 nM
HCT-116 colon
  GI50: 989 nM
SR leukemia
  GI50: 166 nM
  TGI: > 100000 nM
SN12C renal
  GI50: 62.7 nM
  TGI: 3810 nM
U251 CNS
  GI50: 1330 nM
  TGI: 11000 nM
MDA-MB-435
  TGI: > 36000 nM
PC-3 prostate
  GI50: 4430 nM
  TGI: 17800 nM

## COc1cc(-c2nn(-c3cccc(NC(=O)Nc4cc(C(F)(F)F)cc(C(F)(F)F)c4)c3)cc2-c2ccncc2)ccc1Cl
RPMI-8226 leukemia
  GI50: 203 nM
  TGI: 7740 nM
786-0 renal
  GI50: 892 nM
  TGI: 1820 nM
HCT-116 colon
  GI50: 442 nM
  TGI: 2440 nM
SR leukemia
  GI50: 800 nM
  TGI: 2990 nM
SN12C renal
  GI50: 471 nM
  TGI: 1960 nM
U251 CNS
  GI50: 360 nM
  TGI: 1130 nM
MDA-MB-435
  GI50: 772 nM
  TGI: 1850 nM
PC-3 prostate
  GI50: 176 nM
  TGI: 1180 nM

## COc1ccc2c(=O)c3ccoc3n(CC=C(C)C)c2c1
RPMI-8226 leukemia
  TGI: > 100000 nM
786-0 renal
  TGI: > 100000 nM
HCT-116 colon
  TGI: > 100000 nM
SR leukemia
  TGI: > 100000 nM
SN12C renal
  TGI: > 100000 nM
U251 CNS
  TGI: > 100000 nM
MDA-MB-435
  TGI: > 100000 nM
PC-3 prostate
  TGI: > 100000 nM

## O=C1C(=O)c2ccccc2C(O)=C1CC=C(Br)Br
RPMI-8226 leukemia
  GI50: 1570 nM
  TGI: 31100 nM
786-0 renal
  GI50: 3990 nM
  TGI: > 100000 nM
HCT-116 colon
  GI50: 887 nM
  TGI: > 100000 nM
SR leukemia
  GI50: 2570 nM
  TGI: 55900 nM
SN12C renal
  GI50: 5700 nM
  TGI: 77900 nM
U251 CNS
  GI50: 976 nM
  TGI: 52700 nM
MDA-MB-435
  GI50: 5260 nM
  TGI: 98000 nM
PC-3 prostate
  GI50: 3050 nM
  TGI: 91500 nM

## CC(C)(C)c1nn(-c2ccccc2)c2c1C(=O)CSC(c1ccccc1Cl)N2 (stereo unspecified)
RPMI-8226 leukemia
  GI50: 3020 nM
  TGI: 19300 nM
786-0 renal
  GI50: 3320 nM
  TGI: 15100 nM
HCT-116 colon
  GI50: 1900 nM
  TGI: 12000 nM
SR leukemia
  GI50: 413 nM
  TGI: 9890 nM
SN12C renal
  GI50: 3260 nM
  TGI: 14700 nM
U251 CNS
  GI50: 2410 nM
  TGI: 15500 nM
MDA-MB-435
  GI50: 304 nM
  TGI: 1310 nM
PC-3 prostate
  GI50: 1620 nM
  TGI: 16500 nM

## Cc1cc2nc3c4cc(N)ccc4n(CCN(C)C)c3nc2cc1C
RPMI-8226 leukemia
  GI50: 606 nM
  TGI: 4860 nM
786-0 renal
  GI50: 1110 nM
  TGI: 12600 nM
HCT-116 colon
  GI50: 365 nM
  TGI: 10900 nM
SR leukemia
  GI50: 285 nM
  TGI: 7290 nM
SN12C renal
  GI50: 484 nM
  TGI: 11700 nM
U251 CNS
  GI50: 613 nM
  TGI: 11100 nM
MDA-MB-435
  GI50: 979 nM
  TGI: 3250 nM
PC-3 prostate
  GI50: 935 nM
  TGI: 8670 nM

## N#Cc1nc2c(S(=O)(=O)c3ccccc3)c(N)n(Cc3cccnc3)c2nc1C#N
RPMI-8226 leukemia
  GI50: > 100000 nM
  TGI: > 100000 nM
786-0 renal
  GI50: 22200 nM
  TGI: 79300 nM
HCT-116 colon
  GI50: 9130 nM
  TGI: > 100000 nM
SR leukemia
  GI50: 8590 nM
  TGI: > 100000 nM
SN12C renal
  GI50: 26600 nM
  TGI: > 100000 nM
U251 CNS
  GI50: 9350 nM
  TGI: 33600 nM
MDA-MB-435
  GI50: > 100000 nM
  TGI: > 100000 nM
PC-3 prostate
  GI50: > 100000 nM
  TGI: > 100000 nM

## Cc1ccccc1N=Nc1ccc(NC(=O)c2ccnn2C)c(C)c1
RPMI-8226 leukemia
  GI50: 3410 nM
  TGI: > 100000 nM
786-0 renal
  GI50: 18800 nM
  TGI: > 100000 nM
HCT-116 colon
  GI50: 5990 nM
  TGI: > 100000 nM
SN12C renal
  GI50: 97100 nM
  TGI: > 100000 nM
U251 CNS
  GI50: 24000 nM
  TGI: > 100000 nM
MDA-MB-435
  GI50: 54900 nM
  TGI: > 100000 nM
PC-3 prostate
  GI50: 92700 nM
  TGI: > 100000 nM
